Results published in US10351519B2, “Sulfamate derivative compounds, processes for preparing them and their uses” (BIO-PHARM SOLUTIONS CO., LTD., priority 2016, dated 2019).

Columns and labels:
Assay type in all cases: in vivo
Sprague-Dawley rats [1] = assay: Antiallodynic activity on vincristine-induced pain model; conditions: intraperitoneally; for ED50: Rattus norvegicus, ip
Procedure: Male, Sprague-Dawley rats (160-180 g, Nara Bio, Korea) were habituated for 1 week before surgery and allowed free access to food and water throughout the experimentation. Room temperature and humidity were maintained at 24±2 and 50±10%, respectively.
The vincristine-induced pain model was established by the procedure of Natsuko et al. (2001) with minor modifications. Vincristine was intravenously infused continuously for 14 days using a mini-osmotic pump as follows: 30 ug/kg vincristine sulfate solution (Hospira, Australia) was diluted with 0.9% saline. The pumps (Alzet Model 2002, USA) were filled with the vincristine solution and primed by incubation at 37 for 4 hours before the infusion. Briefly, animal were put under gaseous anesthesia with isoflurane. A catheter made from PE-60 tube was inserted into an external jugular vein in rat. Sham controls were prepared in the same manner, with the external jugular vein exposed, but with the external jugular vein not cut down. […]
Tactile sensitivity (Mechanical allodynia) was evaluated using von Frey monofilaments before and after treatment, and animals were used withdrawal threshold value was less than 4 g. […] The tactile sensitivity for ipsilateral hind paw was measured using the up-and-down method (Dixon, 1980) with seven von Frey monofilaments (0.4, 1, 2, 4, 6, 8, and 15 g) to 3 trials. […] The 50% paw withdrawal threshold for each paw was calculated using the following formula: [Xth] log=[vFr] log+ky where [vFr] is the force of the last von Frey used, k=0.2249 which is the average interval (in log units) between the von Frey monofilaments, and y is a value that depends upon the pattern of withdrawal responses (Dixon, 1980).
Antiallodynic effect of compound was evaluated at the three dose, intraperitoneally administrated in a volume of 5 ul/g, bw in a vehicle of 30% (v/v) PEG or 20% (v/v) Tween 80. […]
The relative values compared to the sham (% control) were calculated and shown in Table 5, which show an antiallodynic effect of Compound 2&7 on vincristine-induced pain model in rats.

Sprague-Dawley rats [2] = assay: Antiallodynic activity on post operative-induced pain model; conditions: intraperitoneal injection; for ED50: Rattus norvegicus, ip, read-out: Post Operation ED50
Text: Male Sprague-Dawley rats (230-250 g, Orient Bio, Korea), were habituated at least 3 days before surgery and were allowed free access to food and water throughout the experimentation. Room temperature and humidity were maintained at 24±2 and 50±10%, respectively. The process of performing the post-operation model's surgery was adapted from Brennan et al (1996). At first, rats with allodynia (threshold valueless than 8 g) were excluded in Pre-von Frey Test. During the post-operation surgery, rats were anesthetized under gaseous anesthesia with 2% isoflurane. The rat was placed, lying face down on 37 degree warm plate to prevent against hypothermia. The ipsilateral plantar aspect (left side) of the hind paw was prepared in a sterile manner with a 10% povidone-iodine solution. A 1 cm longitudinal incision was made with a number 10 blade, through the skin and fascia of the ipsilateral plantar aspect of the foot, starting from 0.5 cm from the proximal edge of the heel and extending toward the toes. Rats' plantar muscles were elevated and incised longitudinally. After hemostasis with gentle pressure, the skin was opposed with 2 mattress sutures of 4-0 Dafilon.
After 24 hours of recovery, rats with a good response (threshold less than 4 g) in Pre-von Frey Test were selected. According to this response, we made three groups with each group having equal average responses: Group 1, post-operation and drug treated; Group 2, post-operation and vehicle treated; Group 3, no post-operation and vehicle treated. In this study, Group 3 was the sham control (positive) group. […]
For efficacy measure, the threshold value of group C was assigned 100% efficacy, and the percentage of the threshold values of group A compared to group C (for each different dose level) were calculated as the efficacies. Base on these efficacy values, ED50 was calculated using log fitting. […]
For pain threshold test, all animals were placed in a stainless steel meshed chamber and habituated for 30 min in the test cage. The tactile sensitivity of the ipsilateral hind paw was measured using the up-and-down method (Dixon, 1980) with seven von Frey monofilaments (0.4, 1, 2, 4, 6, 8, and 15 g) using 3 trials. The 50% paw withdrawal threshold for each paw was calculated using the following formula: [Xth] log=[vFr] log+ky, where [vFr] is the force of the last von Frey filament used, k=0.2249 which is the average interval (in log units) between the von Frey monofilaments, y which is a value that depends upon the pattern of withdrawal responses, and Xth which is the threshold value (Dixon, 1980). […]
The relative values compared to the sham (% control) were calculated and shown in Table 7, which show an antiallodynic effect of the compound of examples on Post operation-induced pain model in rats.

Sprague-Dawley rats [3] = assay: Lithium-pilocarpine induced epilepsy test, intervention; conditions: Rattus norvegicus, iv, i.v. at SE onset, read-out: Lithium pilocarpine model(inter) ED50
Procedure: Male Sprague-Dawley rats (purchased from Orient Bio Inc. Korea) of body weight 175 grams were used for these studies and 3 rats per cage were housed for 4-5 days. On the day prior to SE, rats received 127 mg/kg lithium chloride (Sigma, St. Louis, Mo., U.S.A.) intraperitoneally (i.p.). Approximately 18-20 h following this treatment, rats were given an i.p. injection of CD97 dose (30-43 mg/kg) pilocarpine (Sigma). An i.p. injection of 2 mg/kg methyl-scopolamine (Sigma) was administered 30 min prior to pilocarpine to block the effects of the muscarinic agonist on peripheral cholinergic receptors. Test drugs were dissolved in 20% tween80 (Sigma).
The drugs were administered intravenously (i.v.) in a volume of 2 ul/g body weight at SE onset. Pharmacological effects of all of the test materials were evaluated to compare test groups (n=3-6) with a control group (n=3-6). Control group was administered vehicle only. The animals were then transferred to observation cages and observed continuously for 90 min. Seizure was elicited in approximately 95% of the control group. Protection was defined as complete absence of seizure grade 3-5 (Racine scale; Racine, 1972) over the 90-min observation period. The effective dose of the compound necessary to protect 50% of the animals against seizures compared to controls (i.e. ED50) was determined by a curve fitting program (Excel 2007, Microsoft).

| Structure (SMILES) | ED50 (Sprague-Dawley rats [1]) | Vincristine-induced pain model Peak Time (Sprague-Dawley rats [1]) | ED50 (Sprague-Dawley rats [2]) | Post Operation Peak Time (Sprague-Dawley rats [2]) | ED50 (Sprague-Dawley rats [3]) |
| --- | --- | --- | --- | --- | --- |
| C[C@@H](OS(N)(=O)=O)[C@H](O)c1ccccc1Cl [Example 2, (1R, 2R)-1-(2-chlorophenyl)-1-hydroxypropan-2-yl sulfamate] | > 20 mg/kg |  |  |  |  |
| C[C@H](OS(N)(=O)=O)[C@@H](O)c1c(Cl)cccc1Cl [Example 7, (1S, 2S)-1-(2,6-dichlorophenyl)-1-hydroxypropan-2-yl sulfamate] | 10.3 mg/kg | 0.5 h | 5.8 mg/kg | 0.5 h | 23.3 mg/kg |
| C[C@@H](OS(N)(=O)=O)[C@H](O)c1c(Cl)cccc1Cl [Example 8, (1R, 2R)-1-(2,6-dichlorophenyl)-1-hydroxypropan-2-yl sulfamate] |  |  | 4.2 mg/kg | 0.5 h | 44.8 mg/kg |
